# Test results from patent publication US20140220094A1, “METHODS AND COMPOSITIONS FOR A LAPAROSCOPIC SURGERY” (Prelief Inc., priority 2009, published 2014).
# Test system: laparoscopic ports
# Assay: Laparoscopic cutaneous studies: treated vs untreated laparoscopic port sites
# Format: in vivo, human
# Details: another patient, 10 days after the treatment
# Method: Cellerity® 10 topical lotion has been used in single patient multiple sites laparoscopic procedure studies. The studies compared healing time, severity of scar formation and inflammation at laparoscopic ports with and without CGP treatment.
# The treatment was started within 24 hours after the laparoscopic surgery. The patient was instructed to allow the applied lotion to dry completely before applying their clothes and not to wash the treatment area for two hours after the application. This procedure was performed twice a day for three full weeks. […] The untreated ports were grossly inflamed, had tissue necrosis at the incision site and desquamation of epithelium. It also remained inflamed and the staple sites were still prominent and erythematous. At the incision line, a glassy layer of fibroblastic scar tissue was present.
# Steri-Strips to the left side of the incisions, and leaving the midline left untreated. […] The untreated midline scar remained as inflamed and delayed in the healing process by 3-4 weeks, because the inflamed situation must resolve before the healing can occur. That delay appeared to have allowed more fibroblastic growth in the untreated scar, than was present on the treated scars.
substance,measurement,setting,value
calcium glycerophosphate [CGP],edematous changes vs untreated midline incision,left and right sides treated,no edematous changes
same,erythema vs untreated midline incision,left and right sides treated,less erythema
same,inflammation vs untreated midline incision,left and right sides treated,substantially less inflammation
same,difference between direct application (right side) and application through Steri-Strips (left side),treatment started 24 hours after surgery,no difference
